Results published in US20220000762A1, “COMPOSITIONS FOR TREATING OXIDATIVE STRESS-ASSOCIATED SKIN DISEASES AND SKIN AGEING AND DIAGNOSIS OF OXIDATIVE STRESS-ASSOCIATED SKIN DISEASES” (priority 2019, published 2022).

Experiment: ABTS radical cation assay
Format: biochemical
Details: RoxP peptides, ABTS assay (Example 12), increased with concentration
Experimental: FIG. 4: RoxP antioxidant activity under adverse conditions. The ability of RoxP to reduce ABTS radical cations, denoted by a decrease in absorbance at 734 nm, was tested in multiple settings. Different concentrations of recombinant RoxP (rRoxP) (0.2-3.2 μM) in sodium phosphate buffer (20 mM, pH 7.4) (A), rRoxP (2.7 μM) incubated with salt solutions (B), pre-heated rRoxP (2.7 μM) incubated for 20 min in temperatures ranging from RT to 98° C. and allowed to cool down to ambient temperature prior to activity measurements (C), or rRoxP (2 μM) stored at room temperature for up to 2 weeks (D) were added to a solution of pre-formed ABTS radicals and the absorbance recorded after 30 sec.
The reduction of pre-formed ABTS radical cations in the presence of RoxP was analysed using a spectrophotometric assay previously described by Re et al. (1999 Free Radic Biol Med 26:1231-1237). 2,2′-azinobis(3-ethylbenzothiazoline-6-sulfonic acid) diammonium salt (ABTS) (Sigma-Aldrich) was initially dissolved in ddH2O to a concentration of […]. Potassium persulfate (Merck KGaA, Darmstadt, Germany) was subsequently added to a final concentration of 2.45 mM and the resulting solution kept dark and incubated overnight at RT. Formed ABTS radicals were diluted with PBS (pH 7.4) until reaching an absorbance of approximately 0.7 at 734 nm. Antioxidants (1.7 μM) were added (1:9 v/v) and the absorbance spectrum 500 to 900 nm recorded after 30 sec.

Row | Sequence | antioxidant activity
1 | RTLSYCAYPHYVN (Cutibacterium acnes) [RoxP-Peptide 2] | display antioxidant activity
2 | VRADGYQESMVTRVLDDK (Cutibacterium acnes) [RoxP-Peptide 1] | display antioxidant activity
